Reference: paper PMC7545175 (Scientific Reports, 2020)
Where two headings read alike, the source gives them in different places.

Columns and labels:
[1] = tested on: MCF10A, a nonmalignant mammary epithelial cell line; experiment: Cell viability assay (PrestoBlue, 72 h), MCF10A; format: cell-based; settings: for Survival rate at 10 uM MCF10A / MCF-10A Inhibition rate: human, 72 h, 10 µM
Description: (§1) The cells were seeded in 384-well clear plates with a density of 8 × 10^2 cells/well for MCF-10A and BT-549 cell lines, 1 × 10^3 cells/well for MDA-MB-453, and 2 × 10^3 cells/well for MDA-MB-231 overnight. Then cells were treated with the indicated concentrations of test compounds for 72 h. At the end of incubation, 5 μL of PrestoBlue Cell Viability Reagent (Invitrogen, Carlsbad, CA, USA) was added to each well with 50 μL medium. The plates were incubated for an additional 1.5 h at 37 °C in a humidified 5% CO2 atmosphere; the relative fluorescence unit (RFU) in the reaction mixture will then be recorded (Ex560/Em590) by Victor^2-Vplate reader (PerkinElmer, Waltham, MA, USA). The cell lines were chosen based on the mutation status of PTEN and/or TP53: MCF-10A, the nonmalignant mammary epithelial cell line; BT-549 with mutation of PTEN and TP53; MDA-MB-453 with mutation of PTEN; MDA-MB-231 with mutation of TP53[47].

[2] = tested on: BT-549; experiment: Cell viability assay (PrestoBlue, 72 h), BT-549; format: cell-based; settings: Homo sapiens; for viability at 10 µM: BT-549, 72 h, mean of at least two determinations, within ± 15%, read-out: Survival rate at 10 uM BT-549; for IC50: BT-549
Description: as §1

[3] = tested on: MDA-MB-231; experiment: Cell viability assay (PrestoBlue, 72 h), MDA-MB-231; format: cell-based, human; settings: for viability at 10 µM / IC50: Homo sapiens; for viability at 10 µM: MDA-MB-231, 72 h, mean of at least two determinations, within ± 15%, read-out: Survival rate at 10 uM MDA-MB-231; for IC50: MDA-MB-231; for Activity toward TNBC cell lines (in words): TNBC cell lines MDA-MB-231, BT-549, MDA-MB-453
Description: as §1

[4] = tested on: MDA-MB-453; experiment: Cell viability assay (PrestoBlue, 72 h), MDA-MB-453; format: cell-based; settings: Homo sapiens; for viability at 10 µM: MDA-MB-453, 72 h, mean of at least two determinations, within ± 15%, read-out: Survival rate at 10 uM MDA-MB-453; for IC50: MDA-MB-453
Description: as §1

[5] = target: mu-opioid receptor (MOR) (Homo sapiens, UniProt P35372); experiment: FLIPR calcium assay in CHO-K1/MOR/Gα15 cells
Chain of mu-opioid receptor (MOR) (P35372 whole entry): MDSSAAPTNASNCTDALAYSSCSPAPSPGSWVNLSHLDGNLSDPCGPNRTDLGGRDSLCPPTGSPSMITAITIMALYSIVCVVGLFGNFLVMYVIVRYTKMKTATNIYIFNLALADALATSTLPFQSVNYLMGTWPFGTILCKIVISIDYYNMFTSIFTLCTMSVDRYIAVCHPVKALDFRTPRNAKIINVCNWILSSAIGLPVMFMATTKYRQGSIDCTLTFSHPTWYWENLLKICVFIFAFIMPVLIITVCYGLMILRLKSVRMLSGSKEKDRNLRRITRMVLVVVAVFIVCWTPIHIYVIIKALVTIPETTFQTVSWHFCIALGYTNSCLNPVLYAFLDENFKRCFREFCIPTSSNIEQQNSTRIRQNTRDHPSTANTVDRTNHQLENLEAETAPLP

[6] = Figure 3C, unit inferred, read-out: IC50 values BT-549
[7] = Figure 3C, unit inferred, read-out: IC50 values MDA-MB-231
[8] = Figure 3C, unit inferred, read-out: IC50 values MDA-MB-453
[9] = Figure 4B, read-out: BT-549 IC50
[10] = Figure 4B, read-out: MDA-MB-231 IC50
[11] = Figure 4B, read-out: MDA-MB-453 IC50

For `O=C(N/N=C/c1ccccc1Cl)c1[nH]c2ccc(Cl)cc2c1-c1ccccc1` [Compound 1], the “Cytotoxicity to MCF10A (in words)” value [1] was “low cytotoxicity”, the “Survival rate at 10 uM MCF10A” value [1] was -7% and the viability at 10 µM [2] was 12%. For the same molecule, the viability at 10 µM [3] was 36% and the viability at 10 µM [4] was 17%.

For `Nc1c(C(=O)c2ccccc2)sc2nc3c(cc12)CCCC3` [Compound 2], the “Cytotoxicity to MCF10A (in words)” value [1] was “low cytotoxicity”, the “Survival rate at 10 uM MCF10A” value [1] was -5% and the viability at 10 µM [2] was 16%. It also gave a viability at 10 µM [3] of 34% and a viability at 10 µM [4] of 15%.

In the case of `Cc1cc(C)c(-c2csc(NC(=O)c3ccc(Br)cc3)n2)c(C)c1` [Compound 3], the “Cytotoxicity to MCF10A (in words)” value [1] is reported as “low cytotoxicity”, the “Survival rate at 10 uM MCF10A” value [1] is reported as 44% and the viability at 10 µM [2] is reported as 101%. It also gave an IC50 [2, 6] of over 20 µM, a viability at 10 µM [3] of -14% and an IC50 [3, 7] of 1.49 µM. For the same molecule, the “Activity toward TNBC cell lines (in words)” value [3] was “broader TNBC inhibitions”, the viability at 10 µM [4] was 21% and the IC50 [4, 8] was 5.19 µM.

With `Cc1ccc(-c2csc(NC(=O)c3ccc(F)cc3)n2)c(C)c1` [Compound 4] the “Cytotoxicity to MCF10A (in words)” value [1] was “low cytotoxicity”, the “Survival rate at 10 uM MCF10A” value [1] was 101% and the viability at 10 µM [2] was 106%. For the same molecule, the viability at 10 µM [3] was 35% and the viability at 10 µM [4] was 53%.

In the case of `CCN(C(=O)c1sc(NC(=O)CCl)c(C#N)c1C)C1CCCCC1` [Compound 5], the “Cytotoxicity to MCF10A (in words)” value [1] is reported as “low cytotoxicity”, the “Survival rate at 10 uM MCF10A” value [1] is reported as 16% and the viability at 10 µM [2] is reported as 10%. It also gave a viability at 10 µM [3] of -12% and a viability at 10 µM [4] of -16%.

`Cn1ncc(Cl)c1C(=O)Nc1ccc2nc(NC(=O)C3CCCCC3)sc2c1` [Compound 6] was tested, and the “Cytotoxicity to MCF10A (in words)” value [1] was “low cytotoxicity”, the “Survival rate at 10 uM MCF10A” value [1] was 6% and the viability at 10 µM [2] was 22%. It also gave a viability at 10 µM [3] of 33% and a viability at 10 µM [4] of 19%.

In the case of `CCN(CC)S(=O)(=O)c1ccc(C(=O)Nc2nc(-c3ccc(Cl)c(Cl)c3)cs2)cc1` [Compound 7], the “Cytotoxicity to MCF10A (in words)” value [1] is reported as “low cytotoxicity”, the “Survival rate at 10 uM MCF10A” value [1] is reported as 117% and the viability at 10 µM [2] is reported as 54%. The IC50 [2, 6] was over 20 µM, the viability at 10 µM [3] was 6% and the IC50 [3, 7] was 2.52 µM. For the same molecule, the “Activity toward TNBC cell lines (in words)” value [3] was “broader TNBC inhibitions”, the viability at 10 µM [4] was 29% and the IC50 [4, 8] was over 20 µM.

`O=C(c1ccc(Oc2ccc([N+](=O)[O-])cc2)cc1)c1ccc(Oc2ccc([N+](=O)[O-])cc2)cc1` [Compound 8] was tested, and the viability at 10 µM [2] was 88%, the IC50 [2, 6] was over 20 µM and the viability at 10 µM [3] was 22%. For the same molecule, the IC50 [3, 7] was 10.7 µM, the “Activity toward TNBC cell lines (in words)” value [3] was “broader TNBC inhibitions” and the viability at 10 µM [4] was 47%. For the same molecule, the IC50 [4, 8] was over 20 µM.

`Cc1cccc(C(=O)Nc2nc(-c3cc(C)ccc3C)cs2)c1` [Compound 9] was tested, and the “Cytotoxicity to MCF10A (in words)” value [1] was “low cytotoxicity”, the “Survival rate at 10 uM MCF10A” value [1] was 105% and the viability at 10 µM [2] was 79%. For the same molecule, the viability at 10 µM [3] was 51% and the viability at 10 µM [4] was 54%.

With `Cc1cc(C)c(C)c(-c2csc(NC(=O)c3cc([N+](=O)[O-])cc([N+](=O)[O-])c3)n2)c1C` [Compound 10] the viability at 10 µM [2] was 52%, the IC50 [2, 6] was 7.68 µM and the viability at 10 µM [3] was 21%. The IC50 [3, 7] was 8.4 µM, the “Activity toward TNBC cell lines (in words)” value [3] was “broader TNBC inhibitions” and the viability at 10 µM [4] was 25%. The IC50 [4, 8] was over 20 µM.

`O=C(N/N=C/c1ccc(Br)cc1)c1cc2ccccc2[nH]1` [Compound 11] was tested, and the “Cytotoxicity to MCF10A (in words)” value [1] was “low cytotoxicity”, the “Survival rate at 10 uM MCF10A” value [1] was 18% and the viability at 10 µM [2] was 26%. For the same molecule, the viability at 10 µM [3] was 56% and the viability at 10 µM [4] was 29%.

In the case of `COC(=O)Nc1nc2ccc(C(=O)c3ccccc3)cc2[nH]1` [Compound 12], the “Cytotoxicity to MCF10A (in words)” value [1] is reported as “low cytotoxicity”, the “Survival rate at 10 uM MCF10A” value [1] is reported as 13% and the viability at 10 µM [2] is reported as 17%. The viability at 10 µM [3] was 35% and the viability at 10 µM [4] was 22%.

With `Cc1ccc(-c2csc(NC(=O)c3ccc(F)cc3)n2)c(C)c1` [Compound 15] the “MCF-10A Inhibition rate” value [1] was -8%, the IC50 [2, 9] was over 10 µM and the IC50 [3, 10] was 1.89 µM. The IC50 [4, 11] was 9.28 µM.

For `COc1ccc(C(=O)Nc2nc(-c3ccc(C)cc3C)cs2)cc1` [Compound 16], the “MCF-10A Inhibition rate” value [1] was 8%, the IC50 [2, 9] was over 10 µM and the IC50 [3, 10] was 1.4 µM. The IC50 [4, 11] was 6.3 µM.

`COC(=O)c1ccc(C(=O)Nc2nc(-c3ccc(C)cc3C)cs2)cc1` [Compound 18] was tested, and the “MCF-10A Inhibition rate” value [1] was 4%, the “Selectivity over nonmalignant mammary epithelial cell (in words)” value ([1]; versus MDA-MB-231) was “good selectivity” and the IC50 [2, 9] was over 10 µM. For the same molecule, the IC50 [3, 10] was 0.62 µM and the IC50 [4, 11] was over 10 µM.

With `Cc1ccc(-c2csc(NC(=O)c3ccsc3)n2)c(C)c1` [Compound 19] the “MCF-10A Inhibition rate” value [1] was 14%, the IC50 [2, 9] was over 10 µM and the IC50 [3, 10] was 2.68 µM. It also gave an IC50 [4, 11] of over 10 µM.

In the case of `Cc1ccc(-c2csc(NC(=O)c3cc(C)on3)n2)c(C)c1` [Compound 20], the “MCF-10A Inhibition rate” value [1] is reported as 14%, the IC50 [2, 9] is reported as over 10 µM and the IC50 [3, 10] is reported as over 10 µM. It also gave an IC50 [4, 11] of over 10 µM.

In the case of `O=C(Nc1ncc(-c2ccncc2)s1)c1ccc(F)cc1` [Compound 22], the “MCF-10A Inhibition rate” value [1] is reported as -5%, the IC50 [2, 9] is reported as over 10 µM and the IC50 [3, 10] is reported as over 10 µM. For the same molecule, the “Activity toward TNBC cell lines (in words)” value [3] was “did not show activities” and the IC50 [4, 11] was over 10 µM.

With `COc1ccc(C(=O)Nc2ncc(-c3ccncc3)s2)cc1` [Compound 23] the “Cytotoxicity to MCF10A (in words)” value [1] was “exhibited cytotoxicity”, the “MCF-10A Inhibition rate” value [1] was 35% and the IC50 [2, 9] was 2.6 µM. The IC50 [3, 10] was 3.98 µM, the “Activity toward TNBC cell lines (in words)” value [3] was “moderate micro molar activities” and the IC50 [4, 11] was 7.93 µM.

Work on `CN(CCNC(=O)c1ccc(C(=O)NCCN(C)Cc2ccccc2)cc1)Cc1ccccc1` [Compound 24] yielded an EC50 [5] of 5.71 µM.

Molecule `Cc1ccc2c(Cl)c(C(=O)NCC(c3ccccc3Cl)N(C)C)sc2c1` (stereo not shown) [Compound 25] has an EC50 [5] of 6.12 µM.

In the case of `O=C(Nc1ccc(S(=O)(=O)NC2CCCCC2)cc1)C1CCCCC1` [Compound 26], the EC50 [5] is reported as 0.56 µM.

`Cc1ccc(C(=O)Nc2cnc3ccccc3c2)cc1C` [Compound 27] showed an EC50 [5] of 4.32 µM.

`Cc1cc(N2CCN(C)CC2)nc(N2CCN(C(=O)c3ccc(C)c(C)c3)CC2)n1` [Compound 28] showed an EC50 [5] of 8.05 µM.
